# Measurements: paper PMC9501232, “Novel 4-Azapregnene Derivatives as Potential Anticancer Agents: Synthesis, Antiproliferative Activity and Molecular Docking Studies” (Molecules, 2022)
# Columns and labels:
# PC-3 cells = assay: MTT cell proliferation assay, PC-3; format: cell-based, human; conditions: for MTT screening, cell proliferation: PC-3, 30 µM, 72 h, average ± SD; for IC50: Homo sapiens, PC-3, 72 h, MTT
# Description: (§1) Cell lines, namely LNCaP, PC-3, T47-D and NHDF were obtained from American Type Culture Collection (ATCC; Manassas, VA, USA) and cultured in 75 cm^2 culture flasks at 37 °C in a humidified air incubator with 5% CO2. LNCaP, PC-3 and T47-D cells, which were used in passages 20th to 27th, 25th to 29th and 10th to 15th, respectively, were cultured in RPMI 1640 medium (Sigma-Aldrich, Inc., St. Louis, MO, USA) with 10% fetal bovine serum (FBS; Sigma-Aldrich, Inc. St. Louis, MO, USA) and 1% of the antibiotic mixture of 10,000 IU/mL penicillin G and […] of streptomycin (Sp, Sigma-Aldrich, Inc. St. Louis, MO, USA). Finally, NHDF cells (Normal Human Dermal Fibroblasts) were cultured in RPMI 1640 medium supplemented with 10% FBS, 2 mM L-glutamine, 10 mM HEPES, 1 mM sodium pyruvate and 1% of an antibiotic/antimycotic mixture (10,000 U/mL penicillin G, 100 mg/mL streptomycin and 25 µg/mL amphotericin B) (Ab; Sigma-Aldrich, Inc. St. Louis, MO, USA), and these cells were used in passages 10 to 12. For all cell types, the medium was renewed every 2–3 days until cells reach nearly the confluence state. Then, they were detached gently by trypsinization (trypsin-EDTA solution: 0.125 g/L of trypsin and 0.02 g/L of EDTA).
# (§2) All the stock solutions were prepared by dissolving compounds in dimethyl sulfoxide (DMSO; Sigma-Aldrich, Inc., St. Louis, MO, USA) at 10 mM and stored at 4 °C. From these solutions, the several diluted compounds solutions in different concentrations were freshly prepared in a complete culture medium before each experiment.
# (§3) As previously referred, cells were trypsinized after reaching a near confluence state and counted by the trypan blue exclusion assay in a Neubauer chamber. Then, 100 µL of cell suspension/well with an initial density of 2 × 10^4 cells/mL were seeded in 96-well culture plates (Nunc, Apogent, Denmark) and left to adhere for 48 h. After cells adherence, the medium was replaced by the distinct solutions of the compounds in the study (30 µM for preliminary studies and 0.01, 0.1, 1, 10, 50 and 100 µM for concentration–response studies) in the appropriate medium for approximately 72 h. 5-FU and finasteride were used as positive controls and untreated cells were used as the negative control. Each experiment was performed in quadruplicate and independently performed at least two times. The in vitro antiproliferative effects were evaluated by the MTT assay (Sigma-Aldrich, Inc. St. Louis, USA). After the incubation period, the medium was removed and 100 µL of phosphate buffer saline (NaCl 137 mM, KCl 2.7 mM, Na2HPO4 10 mM and KH2PO4 1.8 mM in deionized water and pH adjusted to 7.4) were used to wash the cells. Then, 100 µL of the MTT solution (5 mg/mL) was prepared in the appropriate serum-free medium and was added to each well, followed by incubation for 4 h at 37 °C. Hereafter, the MTT containing medium was removed and the formazan crystals were dissolved in DMSO. Then the absorbance was measured at 570 nm using a microplate spectrophotometer BIO-RAD xMarkTM. Cell viability values were expressed as percentages relative to the absorbance determined in the cells used as negative controls.
# (§4) The data are expressed as a mean ± standard deviation (SD) and differences between groups were considered statistically significant when p < 0.05. The IC50 values were determined through sigmoidal fitting analysis with variable slope and considering a 95% confidence level. All data shown are representative of at least two independent experiments.
# T47-D cells [1] = assay: MTT cell proliferation assay, T47-D; format: cell-based, human; conditions: 72 h; for MTT screening, cell proliferation: 30 µM, average ± SD; for IC50: Homo sapiens, T47D, MTT
# Description: as §1, §2, §3, §4
# [2] = tested on: NHDF cells (Normal Human Dermal Fibroblasts); assay: MTT cell proliferation assay, NHDF; format: cell-based; conditions: 72 h; for MTT screening, cell proliferation: 30 µM, average ± SD; for IC50: Homo sapiens, MTT
# Description: as §1, §2, §3, §4
# LNCaP cells = assay: MTT cell proliferation assay, LNCaP; format: cell-based, human; conditions: 72 h; for MTT screening, cell proliferation: 30 µM, average ± SD; for IC50: Homo sapiens, MTT
# Description: as §1, §2, §3, §4
# T47-D cells [3] = assay: Cell nuclear morphology and distribution analysis with ImageJ; format: cell-based, human; conditions: 20 µM, 48 and 72 h
# Source text: The nuclear measurements were achieved by converting 16-bit photomicrographs of Hoechst 3342-stained nuclei, in different conditions, into 8-bit images and then these images were autothresholded to binary photos using the default method “Make binary” function of ImageJ v 1.49. Cell nuclei that are touching were separated and fragments were discarded based on the area through the “Analyze Particle” function. This function also provides several information pretended as nuclear area, circumference and form factor [33]. In addition, the “Nearest Neighbor Distance” was determined. This function allows measuring the distance between each cell nucleus and the nearest ones.
# [4] = tested on: caspase-9 activity in T47-D cells; assay: Caspase-Glo 9 caspase-9 activity assay; format: cell-based, human; conditions: 48 h, DOX 10 µM, 3g 10 and 20 µM, relative to untreated cells
# Description: Promega Caspase-Glo 9 assay (Promega, Madison, WI, USA) was employed to evaluate the caspase-9 activity. T47-D cells were seeded in a 96 multiwell plate at a density of 4 × 10^4 cells/mL. After 48 h, cells were treated with the positive control, DOX, at 10 μM and with 10 and 20 μM of 3g, during 48 h. The assay was performed at the end of treatment, following the instructions provided by the manufacturer. Data are representative of at least two experiments (n = 4 in each).
Compound,"MTT screening, cell proliferation (PC-3 cells)","MTT screening, cell proliferation (T47-D cells [1])","MTT screening, cell proliferation [2]","MTT screening, cell proliferation (LNCaP cells)",melting point [°C],IC50 (PC-3 cells) [µM],IC50 (T47-D cells [1]) [µM],IC50 [2] [µM],IC50 (LNCaP cells) [µM],Nearest neighbor distance (NND) of cell nuclei (T47-D cells [3]),Caspase-9 activity [4]
"4-Azapregn-4-ene-3,20-dione [Compound 2]",96.7 ± 9.3 percentage of negative control,137.0 ± 18.0 percentage of negative control,106.1 ± 6.0 percentage of negative control,58.3 ± 13.6 percentage of negative control,–,–,–,–,–,–,–
CC(=O)[C@H]1CCC2C3CCC(=O)[C@](C)(CCC(=O)O)C3CC[C@@]21C (stereo partly drawn) [Compound 1],102.1 ± 5.2 percentage of negative control,130.8 ± 20.8 percentage of negative control,100.0 ± 6.0 percentage of negative control,96.4 ± 16.1 percentage of negative control,168 to 169,–,–,–,–,–,–
"C[C@]12CC[C@H]3[C@@H](CC=C4NC(=O)CC[C@@]43C)[C@@H]1CC[C@@H]2C(=O)/C=C/c1ccccc1 [Compound 3a, 21E-(Phenylmethylidene)-4-azapregn-5-ene-3,20-dione]",1.4 ± 1.0 percentage of negative control,6.5 ± 5.4 percentage of negative control,25.1 ± 7.4 percentage of negative control,6.5 ± 5.3 percentage of negative control,–,12.6,16.9,64,27.5,–,–
"Cc1ccc(/C=C/C(=O)[C@H]2CC[C@H]3[C@@H]4CC=C5NC(=O)CC[C@]5(C)[C@H]4CC[C@]23C)cc1 [Compound 3b, 21E-[(4-Methylphenyl)methylidene]-4-azapregn-5-ene-3,20-dione]",25.9 ± 3.8 percentage of negative control,45.0 ± 11.6 percentage of negative control,83.0 ± 3.6 percentage of negative control,62.7 ± 9.0 percentage of negative control,191 to 193,25.9,45,–,–,–,–
"C[C@]12CC[C@H]3[C@@H](CC=C4NC(=O)CC[C@@]43C)[C@@H]1CC[C@@H]2C(=O)/C=C/c1ccc([N+](=O)[O-])cc1 [Compound 3c, 21E-[(4-Nitrophenyl)methylidene]-4-azapregn-5-ene-3,20-dione]",0.7 ± 0.5 percentage of negative control,6.7 ± 4.6 percentage of negative control,20.3 ± 2.8 percentage of negative control,5.2 ± 2.6 percentage of negative control,–,3.29,6.56,6.94,16.3,–,–
"COc1ccc(/C=C/C(=O)[C@H]2CC[C@H]3[C@@H]4CC=C5NC(=O)CC[C@]5(C)[C@H]4CC[C@]23C)cc1 [Compound 3d, 21E-[(4-Methoxyphenyl)methylidene]-4-azapregn-5-ene-3,20-dione]",58.2 ± 6.0 percentage of negative control,73.9 ± 14.6 percentage of negative control,52.4 ± 2.8 percentage of negative control,88.0 ± 15.5 percentage of negative control,280 to 282,–,–,–,–,–,–
"C[C@]12CC[C@H]3[C@@H](CC=C4NC(=O)CC[C@@]43C)[C@@H]1CC[C@@H]2C(=O)/C=C/c1ccco1 [Compound 3e, 21E-[(Furan-2-yl)methylidene]-4-azapregn-5-ene-3,20-dione]",82.7 ± 6.5 percentage of negative control,92.6 ± 7.4 percentage of negative control,111.6 ± 13.9 percentage of negative control,85.3 ± 6.7 percentage of negative control,260 to 261,–,–,–,–,–,–
"Cc1ccc(/C=C/C(=O)[C@H]2CC[C@H]3[C@@H]4CC=C5NC(=O)CC[C@]5(C)[C@H]4CC[C@]23C)o1 [Compound 3f, 21E-[(5-Methylfuran-2-yl)methylidene]-4-azapregn-5-ene-3,20-dione]",108.1 ± 7.8 percentage of negative control,104.3 ± 11.3 percentage of negative control,89.7 ± 9.7 percentage of negative control,88.9 ± 17.7 percentage of negative control,200 to 203,–,–,–,–,–,–
"O=c1[nH]cc(F)c(=O)[nH]1 [Compound 5-FU, 5-fluorouracil, reference compound]",10.8 ± 3.1 percentage of negative control,42.3 ± 6.4 percentage of negative control,33.6 ± 8.2 percentage of negative control,18.6 ± 2.6 percentage of negative control,–,3.3,0.7,29.4,1.5,different distances,–
"C[C@]12CCC(=O)C[C@@H]1CC[C@@H]1[C@@H]2CC[C@]2(C)[C@@H](O)CC[C@@H]12 [DHT, 5α-dihydrotestosterone, reference compound]",93.1 ± 4.9 percentage of negative control,90.7 ± 9.4 percentage of negative control,100.5 ± 7.4 percentage of negative control,138.9 ± 3.9 percentage of negative control,–,–,–,–,–,–,–
"COc1cccc2c1C(=O)c1c(O)c3c(c(O)c1C2=O)C[C@@](O)(C(=O)CO)C[C@@H]3O[C@H]1C[C@H](N)[C@H](O)[C@H](C)O1 [DOX, doxorubicin, reference compound]",–,–,–,–,–,–,–,–,–,–,significant elevation in caspase-9 activity
"CC(=O)[C@H]1CC[C@H]2[C@@H]3CCC4=CC(=O)CC[C@]4(C)[C@H]3CC[C@]12C [Progesterone, reference compound]",42.9 ± 5.4 percentage of negative control,62.9 ± 6.8 percentage of negative control,96.6 ± 14.3 percentage of negative control,64.3 ± 16.1 percentage of negative control,–,–,–,–,–,–,–
"C[C@]12CC[C@H]3[C@@H](CCC4=CC(=O)CC[C@@]43C)[C@@H]1CC[C@@H]2O [Testosterone, reference compound]",89.5 ± 9.0 percentage of negative control,72.0 ± 4.0 percentage of negative control,94.2 ± 7.3 percentage of negative control,99.2 ± 4.2 percentage of negative control,–,–,–,–,–,–,–
